# Measurements reported in PubChem BioAssay AID624395 (The Scripps Research Institute Molecular Screening Center, 2012).
# Calls of active or inactive are those of the source. No rule for the calls is given here.
# Tested on: cell-based VP16 transactivation luciferase luminescence
# Assay: compounds lowering VP16-driven reporter luminescence – cell-based, counter-screen for NR2E3 agonist project, dose response (AID 624395)
row,Compound,IC50
1,O=c1cc(N2CCN(c3cccc(Cl)c3)CC2)[nH]c(=O)n1C1CCCCC1,> 39.8 µM (inactive)
2,Cc1ccc(S(=O)(=O)N2[C@@H](c3ccc(Br)cc3)C(C(=O)O)=CC[C@H]2c2ccc(Cl)c(Cl)c2)cc1,7.28 µM
3,N#Cc1c(-c2ccccc2)cc(-c2ccccc2)nc1SCCC(=O)O,31.5 µM (inactive)
4,Cc1ccc(OCCOC(=O)c2cc(S(=O)(=O)N3CCCCC3)ccc2N2CCOCC2)cc1,8.95 µM
5,CC(C)(C)NCC(=Cc1ccccc1)C(=O)c1ccccc1,7.33 µM
6,Cc1ccccc1Cn1nnc(C(=O)Nc2cccc(C)c2C)c1N,18 µM (inactive)
7,CC[C@@]1(O)C(=O)OCc2c1cc1n(c2=O)Cc2cc3c(N)cccc3nc2-1,1.99 µM
8,CCCCCCCCn1c(=O)c(C(=O)OC)c(N)c2ccccc21,3.64 µM
9,O=C1/C(=C\c2ccc([N+](=O)[O-])cc2)CS(=O)(=O)C/C1=C/c1ccc([N+](=O)[O-])cc1,4.12 µM
10,Cc1cc(C(=O)COc2cccnc2[N+](=O)[O-])c(C)n1-c1ccccc1,0.3 µM
11,Cc1cccc(C)c1OCc1cc(C(=O)N2CCC(c3ccncc3)CC2)no1,2.08 µM
12,O=[N+]([O-])c1cc(C(F)(F)F)cc([N+](=O)[O-])c1NCCNC(=S)Nc1ccc(Cl)c(Cl)c1,11.5 µM (inactive)
13,COc1ccc(NC2c3ccccc3C(=O)N2Cc2ccccc2Cl)cc1OC (stereo not drawn),> 39.8 µM (inactive)
14,COc1ccc(NC(=O)c2sc(=O)n(Cc3cccc(C(F)(F)F)c3)c2C)cc1OC,35.6 µM (inactive)
15,Cc1cccc(OCCCC(=O)Nc2nc3ccccc3[nH]2)c1,> 39.8 µM (inactive)
16,C=CCn1c(C)cc(C(=O)COc2ccc(C)nc2[N+](=O)[O-])c1C,0.946 µM
17,CN(C)c1ccc(/C=C/c2cc[n+](C)c3ccccc23)cc1,6.66 µM
18,COc1cc2nc(CN3CC=C(c4ccccc4)CC3)[nH]c(=O)c2cc1OC,1.91 µM
19,CCC1(OC(=O)CN(C)C)C(=O)OCc2c1cc1n(c2=O)Cc2cc3c(N)cccc3nc2-1 (stereo not drawn),2.99 µM
20,O=[N+]([O-])c1ccc(NS(=O)(=O)c2ccccc2)c(Cl)c1,4.38 µM
21,c1ccc(C(Cc2nc(-c3ccncc3)no2)c2ccccc2)cc1,4.37 µM
22,Cc1sc(NC(=O)/C=C/c2ccc3c(c2)OCO3)nc1-c1ccccc1,7.11 µM
23,O=C(c1cc(S(=O)(=O)N2CCN(c3ccccc3)CC2)ccc1Cl)N1CCCCCCC1,2.51 µM
24,CC(=O)Nc1ccc(Sc2ccc([N+](=O)[O-])o2)cc1,18.3 µM (inactive)
25,COc1ccc(NC(=O)/C(Cl)=C(/Cl)S(=O)Cc2ccccc2)cn1 (stereo not drawn),2.1 µM
26,Cc1cc(C(=O)CSc2nnc3ccccn23)c(C)n1-c1ccccc1,25.7 µM (inactive)

row,Compound,IC50
1,COc1ccc(CNC(=O)c2cccc3c(-c4ccc(F)c(F)c4)coc23)cc1OC,4.54 µM
2,Cc1ccnc(NC(=S)N2CCN(c3cccc(C(F)(F)F)c3)CC2)c1,12.3 µM (inactive)
3,Cc1cccc(/C=N/Nc2cc(N3CCOCC3)nc(N3CCOCC3)n2)c1,5.91 µM
4,COc1ccc(S(=O)(=O)N2CCCCC2)cc1NC(=S)Nc1cccc(Cl)c1C,> 39.8 µM (inactive)
5,O=C(C1CC1)N1CCc2cc(Br)cc(S(=O)(=O)N3CCN(c4ccccn4)CC3)c21,> 39.8 µM (inactive)
6,CC(C)c1cc2c(c(O)c1O)[C@@]13CCCC(C)(C)C1CC2OC3=O (stereo partly drawn),> 39.9 µM (inactive)
7,CCC(=O)N1CCCc2cc(S(=O)(=O)N3CCN(c4ccccn4)CC3)ccc21,22.5 µM (inactive)
8,O=C(CSc1nnnn1-c1ccccc1)Nc1nsc(-c2ccc(Cl)cc2)n1,0.833 µM
9,COc1cccc(C(=O)c2sc(NC(C)C)nc2N)c1,5.16 µM
10,Cc1ccc(S(=O)(=O)N2[C@@H](c3ccc(Cl)cc3)C(C(=O)O)=CC[C@H]2c2ccc(C(C)C)cc2)cc1,7.56 µM
11,O=C(Nc1ccccc1Cl)/C(Cl)=C(\Cl)S(=O)c1ccccc1 (stereo not drawn),4.1 µM
12,O=[N+]([O-])c1ccc(NC(=S)NCCc2ccc(F)cc2)cc1,5.02 µM
13,COCc1nnc(NC(=O)c2ccc(S(=O)(=O)N(CC(C)C)CC(C)C)cc2)o1,6.62 µM
14,COc1ccc(NC(=O)c2sc(=O)n(Cc3ccc(F)c(Cl)c3)c2C)cc1OC,20.6 µM (inactive)
15,CC1CC(C)C(=NNC(N)=O)C(C(O)CC2CCC(=O)NC2=O)C1 (stereo not drawn),4.07 µM
16,Cc1cccc(Cc2cnc(N3C(=N)SC(C)C3=O)s2)c1 (stereo not drawn),4.96 µM
17,O=C(CSc1nnnn1-c1ccc(O)cc1)Nc1ccc(N2CCOCC2)c(Cl)c1,4.47 µM
18,COc1cccc(NC(=O)CSc2nc3ncc(Br)cc3[nH]2)c1,> 39.8 µM (inactive)
19,Cc1nn(Cc2cccc(F)c2)c(C)c1NC(=O)c1ccc(COc2ccccc2Cl)cc1,11.7 µM (inactive)
20,CCn1c(=O)cc(SCC(=O)Nc2ccc(C)cn2)c2ccccc21,4.63 µM
21,Oc1[nH]c2ccccc2c1N=NC(=S)N1CCOCC1,> 39.9 µM (inactive)
22,NC1=C(Br)C(=O)c2ncccc2C1=O,2.51 µM
23,N#C/C(=N\Nc1ccc(Cl)c(Cl)c1)C(=O)C1CC1,1.04 µM
24,CN(CC(=O)Nc1ccccc1Cl)C(=O)c1cccc(S(=O)(=O)N2CCN(c3ccc(F)cc3)CC2)c1,4.59 µM
25,Cc1c(C(=O)Nc2ccc(Oc3ccccc3)cc2)sc2nc3n(c(=O)c12)CCC3,5.11 µM
26,O=[N+]([O-])c1ccc(O)c2ncccc12,6.36 µM

row,Compound,IC50
1,COc1cc2c(O)c3c(c(-c4ccc5c(c4)OCO5)c2cc1OC)C(=O)OC3,2.3 µM
2,Cc1ccc(NC(=S)/C(C#N)=C2/Nc3ccccc3S2)cc1,2.76 µM
3,Cc1ccc(Cc2cnc(N3C(=N)SC(C)C3=O)s2)cc1 (stereo not drawn),4.37 µM
4,S=C(NN=Cc1ccccn1)Nc1ccccn1,4.44 µM
5,COc1cnc(-c2ccccn2)nc1N(C)c1ccccc1,5.76 µM
6,Cc1cnc(NC(=O)C2CC(=O)N(c3ccc4c(c3)OCCO4)C2)s1 (stereo not drawn),> 39.8 µM (inactive)
7,Cc1ccc(S(=O)(=O)c2ccc([N+](=O)[O-])o2)cc1,6.32 µM
8,COc1ccc(-n2c(C)cc(C(=O)COC(=O)c3ccc(O)cc3O)c2C)cc1,4.48 µM
9,CCC1(O)C(=O)OCc2c1cc1n(c2=O)Cc2cc3cc(O)ccc3nc2-1 (stereo not drawn),3.4 µM
10,O=C(NCc1cccnc1)/C(=C\c1ccc(-c2ccc(Cl)c(Cl)c2)o1)S(=O)(=O)c1ccccc1,7.96 µM
11,CN(C)c1ccc(/C=C/c2ccc3ccccc3[n+]2C)cc1,13 µM (inactive)
12,O=c1cc(N2CCN(c3ccccc3)CC2)[nH]c(=O)n1C1CCCCC1,> 39.8 µM (inactive)
13,O=S(=O)(/C(=C\c1ccc(C(F)(F)F)cc1)c1nc2ccccc2[nH]1)c1ccccc1,10.8 µM (inactive)
14,N=C1SCC(=O)N1c1ncc(Cc2cccc(Cl)c2)s1,4.78 µM
15,c1coc(CNc2ncnc3ccccc23)c1,4.45 µM
16,COc1cccc(N2CCN(c3nc(-c4ccccc4C)cc(=O)[nH]3)CC2)c1,4.57 µM
17,COc1ccc(C)cc1NC(=O)c1nnn(Cc2cccc(C(F)(F)F)c2)c1N,> 39.8 µM (inactive)
18,Cc1onc(-c2ccccc2Cl)c1C(=O)Nc1nc2c(s1)CCCC2,> 39.8 µM (inactive)
19,CC(=O)c1c(C)[nH]c(C(=O)OCC(=O)c2ccc(Br)cc2)c1C,3.45 µM
20,N#C/C(=C\c1ccc(Sc2nc3ccccc3[nH]2)o1)c1ccccc1,4.65 µM
21,O=C1c2ccccc2C(=O)c2[nH]c(=O)[nH]c21,4.74 µM
22,Cc1ccc(S(=O)(=O)N2[C@@H](c3ccc(Cl)c(Cl)c3)C(C(=O)O)=C[C@H]2CC2CCCC2)cc1,12 µM (inactive)
23,Cc1ccc(NC(=O)CNC(=O)c2cccc(C)c2)nc1,26 µM (inactive)
24,O=C(COc1cccc2ccccc12)Nc1ccc(Cl)cc1C(=O)O,4.04 µM
25,O=C(OC(c1ccccc1)c1nccc2ccccc12)c1ccccc1 (stereo not drawn),0.242 µM
26,Cc1c(Cl)ccc2sc(N3CCN(C(=O)C4=COCCO4)CC3)nc12,7 µM

row,Compound,IC50
1,CCNc1nc2c(c(=O)n(C)c(=O)n2C)n1Cc1ccc(Cl)cc1,6.02 µM
2,CC(C)c1ccc(C(c2c(O)c3ccccc3oc2=O)c2c(O)c3ccccc3oc2=O)cc1,10.3 µM (inactive)
3,C#Cc1cccc(Nc2nc(NCc3ccccc3)nc3ccsc23)c1,12.8 µM (inactive)
4,Cc1ccc(S(=O)(=O)N(CC(=O)Nc2ccccc2C(=O)O)c2cccc(Cl)c2C)cc1,18.8 µM (inactive)
5,O=C(NC(=O)N1CCN(c2cccc(Cl)c2)CC1)c1ccc(Cl)cc1,4.17 µM
6,Cc1cnc(NC(=O)CN2CCN(c3ccccn3)CC2)s1,9.56 µM
7,COc1ccc(S(=O)(=O)N2CCCCC2)cc1NC(=S)Nc1ccccc1,> 39.8 µM (inactive)
8,CCCCOc1ccc(CONS(=O)(=O)c2ccc(NC(C)=O)cc2)cc1Cl,4.03 µM
9,CCc1nnc(NC(=O)c2ccc(S(=O)(=O)N3CCCc4ccccc43)cc2)o1,6.8 µM
10,COc1ccccc1C(=O)Nc1nc2ccccc2[nH]1,5.03 µM
11,CCC(Sc1nc(C)cc(=O)[nH]1)C(=O)Nc1sc2c(c1C#N)CCCC2 (stereo not drawn),5.06 µM
12,CCN(CC)S(=O)(=O)c1ccc(NC(=O)Nc2cccc(C(F)(F)F)c2)cc1,7.08 µM
13,O=C(Nc1cccc(OC(F)(F)F)c1)C1Cc2c(-c3ccc4c(c3)OCO4)ccnc2O1 (stereo not drawn),14.4 µM (inactive)
14,O=C(OC12CC3CC(CC(C3)C1)C2)c1ccc(NCc2cc(O)ccc2O)cc1,11.6 µM (inactive)
15,COc1ccc([C@@H]2C[C@H]3[C@@H](CN2S(=O)(=O)c2ccccc2)C(=O)C[C@@H](c2cccc(Cl)c2)N3S(=O)(=O)c2ccc(C)cc2)cc1,4.51 µM
16,Clc1cc2cccnc2c2ncccc12,12.1 µM (inactive)
17,CC(C)c1ccc(/C=C(\c2nc3ccccc3[nH]2)S(=O)(=O)c2ccccc2)cc1,13.2 µM (inactive)
18,Oc1[nH]c2ccc(Br)cc2c1N=NC(=S)N1CCOCC1,> 13.3 µM (inactive)
19,O=C(COC(=O)c1cc([N+](=O)[O-])ccc1N1CCOCC1)Nc1ccc(Cl)cn1,31.8 µM (inactive)
20,CC1CCC/C=C/C2CC(O)CC2C(O)/C=C/C(=O)O1 (stereo not drawn),1.28 µM
21,CC(Oc1ccc(Br)cc1)c1nc2c3ccccc3nc(=S)n2[nH]1 (stereo not drawn),4.33 µM
22,CC(=O)NC(c1cccs1)c1cc([N+](=O)[O-])c2cccnc2c1O (stereo not drawn),5.77 µM
23,Cc1nc2ccc(S(=O)(=O)Nc3cccc(-c4nc5cccnc5s4)c3)cc2s1,7.12 µM
24,CCC1(OC(=O)CN)C(=O)OCc2c1cc1n(c2=O)Cc2cc3ccccc3nc2-1 (stereo not drawn),1.31 µM
25,Cc1noc(C)c1S(=O)(=O)Nc1ccc(C(=O)N2CCN(c3ccc(Cl)cc3)CC2)cc1,7.09 µM
